# Measured values from patent US6686445B1, “Synthetic antineoplastic agents derived from dolastatin 15 and methods of making same” (Arizona Board of Regents, acting for and on behalf of …, priority 1997, dated 2004).
# Where a SMILES comes first, the peptide text is derived from it. [ ]: non-standard residue; d: D form. The star is where a group is joined. NH(2-(2-pyridyl)ethyl) = c1ccc(CCN*)nc1; NH(4-Br-phenethyl) = Brc1ccc(CCN*)cc1; NMe2Val = CC(C)[C@@H](C(=O)*)N(C)C; X5 = O=[N+]([O-])c1ccc(CCN*)cc1; NHPhenethyl = c1ccc(CCN*)cc1; NMeV = CN[C@H](C(=O)O)C(C)C; Hiv = CC(C)[C@H](O)C(=O)O; X2 = c1ccc2ncc(N*)cc2c1; X4 = COc1ccc(CCN*)cc1OC; X3 = c1ccc2sc(N*)nc2c1; X7 = Clc1cccc(CCN*)c1; NHBn = c1ccc(CN*)cc1; X6 = Fc1ccc(CCN*)cc1; X8 = Clc1ccccc1CCN*
# Tests used:
# tubulin = tubulin polymerization inhibition, 0.8 M glutamate at 30° C.; type: biochemical; details: read-out: tubulin assembly IC50
# Method: (§1) All compounds synthesized were first evaluated for in vitro antitumor activity against murine P388 lymphocytic leukemia cells and against murine L1210 leukemia cells and human CA46 Burkitt lymphoma cells using techniques described by Hamel & Lin (see: HAMEL, E., and LIN, C. M., […], Interaction of combretastatin, a new plant-derived antimitotic agent, with tubulin, Biochemical Pharmacology, 32, 3864). The compounds were also evaluated in the NCI's human tumor 60-cell-line in intro primary screen as described by Monks et al. (see: MONKS, A., SCUDIERO, et al., 1991, New colorimetric cytotoxicity assay for anticancer drug screening, Journal of the National Cancer Institute, 83, 757). Data analyses were performed using methods described by Boyd and Paull (see: BOYD, M. R., et al., 1995, Some practical considerations and applications of the National Cancer Institute in vitro anticancer drug discovery screen, Drug Development Research, 34, 91). A tubulin polymerization inhibition assay was performed according to a modified version of the procedure used previously and described by Muzaffar et al. (see: MUZAFFAR, A., et al., 1990, Antitubulin effects of derivatives of 3-demethylthiocolchicine, methylthio esters of natural colchicinoids, and thioketones derived from thiocolchicine, Comparison with colchicine, Journal of Medicinal Chemistry, 33, 567) to evaluate the effects of dolastatin 15 on cellular microtubule assembly. The new assay for these compounds employed a drug-tubulin preincubation (15 min.) with 10 μM tubulin in 0.8 M glutamate at 30° C., followed by addition of GTP and incubation (20 min.) at 30° C., with tubulin polymerization monitored turbidimetrically in GILFORD recording spectrophotometers.
# Since these high molecular weight polymers, like microtubules, scatter light, they make it impossible to quantify drug effects by turbidimetry or centrifugation. […] (no MgCl2 added to reactions).
# [1] = tested on: murine L1210 leukemia cells; details: read-out: Mouse Leukemia L1210 IC50; cells counted after 24 hours of growth
# Method: as §1
# [2] = tested on: NCI 60-cell-line in vitro human tumor panel; details: read-out: Mean Panel GI50; mean ± S.D. of triplicate tests (* duplicate)
# Method: as §1
# [3] = tested on: human CA46 Burkitt lymphoma cells; details: read-out: Human CA46 Burkitt Lymphoma IC50; cells counted after 20 hours
# Method: as §1
# [4] = tested on: human CA46 Burkitt lymphoma cells; test: mitotic arrest in drug-treated CA46 Burkitt cells; type: cell-based; details: 80 nM drug for 20 hours, control cells 3% mitotic
# Method: To further verify the assumption that this entire series of compounds is acting intracellularly by interfering with tubulin function, the drug-treated Burkitt cells for mitotic arrest were analyzed.
# [5] = tested on: murine P388 lymphocytic leukemia cells; test: growth inhibition of murine P388 lymphocytic leukemia cells; type: cell-based; details: dosage inhibiting tumor cell growth by 50%
# Method: as §1
# Erwinia carotovora = test: antimicrobial disk susceptibility test; type: cell-based; details: twofold dilutions
# Method: Antimicrobial disk susceptibility tests were performed according to the method established by the National Committee for Clinical Laboratory Standards (NCCLS, 1997). MUELLER-HINTON agar was used for susceptibility testing of Staphylococcus aureus, Enterococcus faecalis, Micrococcus luteus, Escherichia coli, Enterobacter cloacae, Bacillus subtilis, Pseudomonas aeruginosa, and Erwinia carotovora, Gonococcal Typing agar for Neisseria gonorrhoeae, and YM agar for Candida albicans and Cryptococcus neoformans. Immediately prior to susceptibility assays, compounds were reconstituted in sterile DMSO and twofold dilutions applied to sterile 6-mm disks. Zones of inhibition were read at 16 hours for bacterial cultures (except for M. luteus) and 42 hours for fungal cultures and M. luteus. MIC determinations were performed in duplicate.
Structure (SMILES),IC50 (tubulin) [nM],IC50 [1] [nM],GI50 [2] [nM],IC50 [3] [nM],% Mitotic Cells [4] [%],Mouse Leukemia P388 ED50 [5] [ng/mL],"Minimum inhibitory concentration, Erwinia carotovora (Erwinia carotovora)"
"CC(C)[C@H](NC(=O)[C@H](C(C)C)N(C)C)C(=O)N(C)[C@H](C(=O)N1CCC[C@H]1C(=O)N1CCC[C@H]1C(=O)NCc1ccccc1)C(C)C [LU103793, N-dimethyl-L-valyl-L-valyl-N-methyl-L-valyl-L-prolyl-L-prolyl-benzamide] (NMe2Val-V[NMeV]PP-NHBn)",4000 ± 600,–,–,–,–,–,–
CC(C)[C@H](NC(=O)[C@H](C(C)C)N(C)C)C(=O)N(C)[C@H](C(=O)N1CCC[C@H]1C(=O)N1CCC[C@H]1C(=O)O[C@H](C(=O)NCCc1ccc(Br)cc1)C(C)C)C(C)C [Compound 12h] (NMe2Val-V[NMeV]PP[Hiv]-{NH(4-Br-phenethyl)}),–,2,0.81 ± 0.15,2,48,0.36,–
COC(=O)[C@@H]1CCCN1C(=O)[C@@H](OC(=O)[C@@H]1CCCN1C(=O)[C@@H]1CCCN1C(=O)[C@H](C(C)C)N(C)C(=O)[C@@H](NC(=O)[C@H](C(C)C)N(C)C)C(C)C)C(C)C [Compound 12o] (NMe2Val-V[NMeV]PP[Hiv]P-OMe),–,4,4.48 ± 0.44,2,42,3.1,–
CC(C)[C@H](NC(=O)[C@H](C(C)C)N(C)C)C(=O)N(C)[C@H](C(=O)N1CCC[C@H]1C(=O)N1CCC[C@H]1C(=O)O[C@H](C(=O)Nc1nc2ccccc2s1)C(C)C)C(C)C [Compound 12q] (NMe2Val-V[NMeV]PP[Hiv]-X3),–,3,2.54,2,36,0.45,50-100 μg/disk
COC(=O)[C@H](CCSC)NC(=O)[C@@H](OC(=O)[C@@H]1CCCN1C(=O)[C@@H]1CCCN1C(=O)[C@H](C(C)C)N(C)C(=O)[C@@H](NC(=O)[C@H](C(C)C)N(C)C)C(C)C)C(C)C [Compound 12n] (NMe2Val-V[NMeV]PP[Hiv]M-OMe),–,3,2.93 ± 0.93,3,44,0.55,–
CC(C)[C@H](NC(=O)[C@H](C(C)C)N(C)C)C(=O)N(C)[C@H](C(=O)N1CCC[C@H]1C(=O)N1CCC[C@H]1C(=O)O[C@H](C(=O)NCCc1ccccc1Cl)C(C)C)C(C)C [Compound 12g] (NMe2Val-V[NMeV]PP[Hiv]-X8),–,4,0.81 ± 0.31,2,26,0.33,–
COC(=O)[C@H](Cc1ccccc1)NC(=O)[C@@H](OC(=O)[C@@H]1CCCN1C(=O)[C@@H]1CCCN1C(=O)[C@H](C(C)C)N(C)C(=O)[C@@H](NC(=O)[C@H](C(C)C)N(C)C)C(C)C)C(C)C [Compound 12m] (NMe2Val-V[NMeV]PP[Hiv]F-OMe),–,3,3.76 ± 1.05,1,40,0.54,50-100 μg/disk
CC(C)[C@H](NC(=O)[C@H](C(C)C)N(C)C)C(=O)N(C)[C@H](C(=O)N1CCC[C@H]1C(=O)N1CCC[C@H]1C(=O)O[C@H](C(=O)NCCc1ccccn1)C(C)C)C(C)C [Compound 12k] (NMe2Val-V[NMeV]PP[Hiv]-{NH(2-(2-pyridyl)ethyl)}),–,4,3 ± 1.04,2,30,0.40,50-100 μg/disk
COc1ccc(CCNC(=O)[C@@H](OC(=O)[C@@H]2CCCN2C(=O)[C@@H]2CCCN2C(=O)[C@H](C(C)C)N(C)C(=O)[C@@H](NC(=O)[C@H](C(C)C)N(C)C)C(C)C)C(C)C)cc1OC [Compound 12j] (NMe2Val-V[NMeV]PP[Hiv]-X4),–,2,1.5 ± 0.58,0.8,31,0.40,50-100 μg/disk
CC(C)[C@H](NC(=O)[C@H](C(C)C)N(C)C)C(=O)N(C)[C@H](C(=O)N1CCC[C@H]1C(=O)N1CCC[C@H]1C(=O)O[C@H](C(=O)NCCc1ccc([N+](=O)[O-])cc1)C(C)C)C(C)C [Compound 12i] (NMe2Val-V[NMeV]PP[Hiv]-X5),–,4,0.94 ± 0.41,3,36,0.60,–
"CC(C)[C@H](NC(=O)[C@H](C(C)C)N(C)C)C(=O)N(C)[C@H](C(=O)N1CCC[C@H]1C(=O)N1CCC[C@H]1C(=O)O[C@H](C(=O)NCCc1ccccc1)C(C)C)C(C)C [Compound 12c, N-[(2S)-O-[(N,N-Dimethyl-valyl)-valyl-(N-methyl-valyl)-prolyl-prolyl]-2-hydroxyisovalerlyl]-2-phenethylamide] (NMe2Val-V[NMeV]PP[Hiv]-NHPhenethyl)",–,2,1.06 ± 0.48,0.3,45,0.26,50-100 μg/disk
CC(C)[C@H](NC(=O)[C@H](C(C)C)N(C)C)C(=O)N(C)[C@H](C(=O)N1CCC[C@H]1C(=O)N1CCC[C@H]1C(=O)O[C@H](C(=O)NCCc1cccc(Cl)c1)C(C)C)C(C)C [Compound 12f] (NMe2Val-V[NMeV]PP[Hiv]-X7),–,4,0.83 ± 0.41,2,38,0.37,–
CC(C)[C@H](NC(=O)[C@H](C(C)C)N(C)C)C(=O)N(C)[C@H](C(=O)N1CCC[C@H]1C(=O)N1CCC[C@H]1C(=O)O[C@H](C(=O)NCCc1ccc(F)cc1)C(C)C)C(C)C [Compound 12d] (NMe2Val-V[NMeV]PP[Hiv]-X6),–,4,0.89 ± 0.29,0.8,46,0.55,–
CC(C)[C@H](NC(=O)[C@H](C(C)C)N(C)C)C(=O)N(C)[C@H](C(=O)N1CCC[C@H]1C(=O)N1CCC[C@H]1C(=O)O[C@H](C(=O)NCc1ccccc1)C(C)C)C(C)C [Compound 12b] (NMe2Val-V[NMeV]PP[Hiv]-NHBn),–,1,0.79 ± 0.1,0.3,46,0.42,50-100 μg/disk
CC(C)[C@H](NC(=O)[C@H](C(C)C)N(C)C)C(=O)N(C)[C@H](C(=O)N1CCC[C@H]1C(=O)N1CCC[C@H]1C(=O)O[C@H](C(=O)Nc1cnc2ccccc2c1)C(C)C)C(C)C [Compound 12r] (NMe2Val-V[NMeV]PP[Hiv]-X2),–,2,2.31,2,42,0.29,50-100 μg/disk
